Reference: patent US8496963B2, “Oral formulations of glycyl-2-methylprolyl-glutamate” (priority 2007, dated 2013)
Where two headings read alike, the source gives them in different places. Blank lines part the entries; values can stand above or below the compound they belong to. Bridge positions count the residues as written; N and C are the ends. Square brackets hold non-standard residues; d marks the D form. Peptide text beside a SMILES is read from it. * marks the point of attachment. Ileψ(thiazoline)Cys = CC[C@H](C)[C@H](N)C1=N[C@H](C(=O)*)CS1; αMeP = C[C@@]1(C(=O)O)CCCN1; dOrn = NCCC[C@@H](N)C(=O)O

Tests used:
Caco-2 cells [1] = format: in vitro ADME, human
Protocol: The purpose of these studies was to determine the effect of pH on the degradation of G-2MePE by Caco-2 cells.
100 μg/ml G-2MePE was added to the apical side of confluent cultures of Caco-2 cells in different pH conditions. Samples were taken at 0, 15, 30, 45, 60, 90, 120, 150, 180, 210, 240 min later. Samples were centrifuged at 20,000 g for 15 min and 50 μl supernatant was injected to the column of HPLC. […] Peptidolytic activity and half-life of G-2MePE were then determined in different pH condition.

Caco-2 cells [2] = test: Cytotoxicity: sulforhodamine B (SRB) growth inhibition of Caco-2 cells; settings: read-out: IC50 of G-2MePE, growth of Caco-2 cells
Protocol: (§1) The purpose of this study growth was to determine if GPE and/or G-2MePE can inhibit growth of cells.
(§2) The cells were fixed by TCA and SRB was added to each well. Cell-bound dye was extracted with Tris base buffer to solubilize the dye and the absorbance determined by a plate reader at 570 nm. Inhibition of growth was expressed as relative viability (% control) and the IC50 was calculated from the concentration-response curves after log/probit transformation.

Caco-2 cells [3] = format: in vitro ADME, human; settings: Caco-2, pH 7.4
Protocol: Fresh medium was replaced every 2-3 days. Cells were cultured at 37° C. for 12-14 days for uptake assay study. The uptake assay study was commenced after cells reached confluency, i.e., after 12-14 days in culture. Each dish was washed with HEPES (pH 7.4). […] The cells were scraped off with a cell scraper into an extraction solution and centrifuged at 20,000 g for 20 min. […] The pellet was diluted by NaOH to determine the protein content by Lowry assay.

Caco-2 cells [4] = test system: Caco-2 cells
Protocol: as §1, §2

Caco-2 cell monolayer = test: Stability of GPE and G-2MePE in the presence of Caco-2 cells; format: in vitro ADME, human; settings: 50-100 μg/ml, HBSS pH 7.4, HPLC
Protocol: The collected samples were extracted by adding 400 μl of 0.04M sulphuric acid into test tubes, each of which contained 50 μl of a sample. The test tubes were left on ice for 5 min and vortexed. The 50 μl of 10% sodium tungstate was added to each tube and the tubes were vortexed immediately and left on ice for 10 min, vortexed again and left on ice for another 10 min. The cells were centrifuged at 20,000 g at 4° C. for 20 min. The supernatant was collected for testing. […] The protein content of samples was measured by Lowry assay.

in vitro = settings: human, Caco-2
Protocol: as §1, §2

[5] = test system: Caco-2 epithelial membrane; test: Permeability of G-2MePE and TEER across Caco-2 cells with permeation enhancers; format: in vitro ADME, human
Protocol: The purpose of this study was to determine if permeability enhancers can increase transport of G-2MePE across Caco-2 cell layers.
G-2MePE was added in three or six replicates to the donor sides of Transwells containing Caco-2 cells in the absence or presence of various permeation enhancers (FIG. 4), 1.5 ml transport buffer was added to the receptor side. The Transwells were then left to incubate. […] After each sample was taken, 0.4 ml of fresh HBSS buffer was added to the side of the Transwell from which sample was taken. Subsequently, 0.1 ml donor solution was collected to measure the concentration of the intact G-2MePE. Following each sampling, 0.1 ml of G-2MePE at the same concentration was replaced.
Peptidolysis was terminated by adding the same volume of HCl (0.2M) to each sample. […] Supernatants were collected, dried by Speed Vacuum, diluted with mobile phase and analysed by spectrofluorophotometer. […] Transepthelial electric resistance (TEER) was measured using a Millipore voltage meter at different time points.

[6] = test system: Caco-2 epithelial cell layer; test: Permeability of fluorescein and TEER across Caco-2 cells with permeation enhancers; format: in vitro ADME, human
Protocol: The purpose of this study was to determine the appearance permeation coefficient (Papp) and transepithelial electrical resistance (TEER) across confluent cultures of Caco-2 epithelial cells caused by a typical hydrophilic material.
Integrity of Caco-2 cell cultures was assessed by measuring the TEER and the leakage of ^14C-mannitol or fluorescein across confluent cultures. Inserts with confluent cell cultures and an electrical resistance of greater than 300 Ω/cm^2, were considered appropriate for these studies. Fluorescein or 0.5 μCi/50 μl of ^14C-mannitol was added to the apical cell and incubated for 1-4 hours. The acceptable leakage was considered to be <0.5-1%. 6 inserts with good integrity were chosen and then washed with transport buffer. The medium from all apical and basolateral wells was removed. The cell cultures were washed twice with warm 37° C. transport buffer.
The solution on the transwell receptor side was then replaced with 0.4 ml of fresh HBSS, and we collected 0.1 ml from the donor side (then replaced with 0.1 ml sodium fluorescein at the same concentration). The reaction was terminated from donor side by adding the same volume HCl (0.2M) or by 3:1 Acetonitril/methonal with 2% acetic acid to each sample. […] Supernatants were collected, dried by Speed Vacuum, diluted with mobile phase and the resulting sample was analysed by spectrofluorophotometer. The apparent permeability coefficient was used to compare the permeability between control and treatment groups (FIG. 4). Transepithelial electric resistance (TEER) was measured using a Millipore voltage meter at different time points.

SMILES: C[C@@]1(C(=O)N[C@@H](CCC(=O)O)C(=O)O)CCCN1C(=O)CN [Formulation G-2MePE, Glycyl-2-Methylprolyl Glutamate] (H-Gly-[αMeP]-Glu-OH)
- pH at which G-2MePE is stable (Caco-2 cells [1]; Caco-2): ≤ 5.5
- degradation in basic conditions (Caco-2 cells [1]; Caco-2, pH 7): Moderate degradation
- IC50 (Caco-2 cells [2]; 24 hours): 4640 µM
- IC50 (Caco-2 cells [2]; 48 hours): 3660 µM
- IC50 (Caco-2 cells [2]; 72 hours): 2240 µM
- IC50 (Caco-2 cells [2]; 96 hours): 1090 µM
- IC50 (Caco-2 cells [2]; 120 hours): 1010 µM
- uptake of G-2MePE by Caco-2 cells (Caco-2 cells [3]): 1.3%

- IC50 (Caco-2 cells [4]): ≥ 15000 µM
- metabolites identified in the presence of Caco-2 cells (Caco-2 cell monolayer): Four
- inhibition at 15 mM (in vitro): 35%
SMILES: NCC(=O)N1CCC[C@H]1C(=O)N[C@@H](CCC(=O)O)C(=O)O [GPE, glycyl-prolyl-glutarnate]

SMILES: CCCCCCCCCC(=O)[O-].[Na+] [Sodium caprate]
- permeability of the Caco-2 epithelial membrane to G-2MePE ([5]; EDTA 30 mM, sodium caprate 20 mM, taurocholate 20 and 30 mM, citric acid 30 mM, bacitracin 3.5 mM): significantly increased
- TEER of Caco-2 cell layer ([5]; G-2MePE transport, EDTA 30 mM, sodium caprate 20 mM, taurocholate 20 & 30 mM, citric acid 30 mM): significantly reduced
- relative effect on fluorescein permeability ([6]; 20 mM caprate vs 20 mM taurocholate): greater than the effect of the same concentration of taurocholate
- TEER of Caco-2 cell layer ([6]; fluorescein transport experiment, 3 h, sodium caprate 10 or 20 mM, taurocholate 30 mM, EDTA 40 mM, SDA 1 mM): reduced the TEER
- permeability of the Caco-2 epithelial cell layer to fluorescein ([6]; sodium caprate 10 or 20 mM, taurocholate 30 mM, EDTA 40 mM, SDA 1 mM, 3 h): significantly (P<0.05) increased

- permeability of the Caco-2 epithelial membrane to G-2MePE ([5]; Caco-2): significantly increased
SMILES: CC[C@H](C)[C@H](N)C1=N[C@H](C(=O)N[C@@H](CC(C)C)C(=O)N[C@H](CCC(=O)O)C(=O)N[C@H](C(=O)N[C@H]2CCCCNC(=O)[C@H](CC(N)=O)NC(=O)[C@@H](CC(=O)O)NC(=O)[C@H](Cc3cnc[nH]3)NC(=O)[C@@H](Cc3ccccc3)NC(=O)[C@H]([C@@H](C)CC)NC(=O)[C@@H](CCCN)NC2=O)[C@@H](C)CC)CS1 [bacitracin] ({Ileψ(thiazoline)Cys}-L[dE]IK[dOrn]I[dF]H[dD]N; lactam 4-C)
